Reference: patent US20240156893A1 (priority 2021, published 2024)
Values joined by “and” are separate entries in the source; they are usually repeats but may differ in a detail not shown here. Identical values can stand only once.

How the values were obtained:
[1] = test system: Lenti virus-like particle expressing VSV-G
[2] = test system: Influenza A virus (IAV, A/WSN/33); format: cell-based
MDCK-II cells [3] = experiment: Parallel residual cytotoxicity test without virus on MDCK-II assay cells (Example 2); format: cell-based, canine; details: 1% LTX-109, after filtration, no virus
Method: (§1) Appropriate controls were also performed.

[4] = test system: Respiratory Syncytial Virus (RSV); experiment: TCID50 virucidal assay, LTX-109 against RSV on Hep2 cells; format: cell-based; details: for TCID50/ml ± SEM (average virus titre recovered): 1 h incubation, Hep2 cells
Method: The experiment was performed in triplicates.
as §1

SARS-CoV-2 = format: cell-based
Hep2 cells = details: 0.1% LTX-109, after filtration, no virus
Method: After 1 hour, the incubation was stopped by adding an excess of cold media, and the formulation was physically separated from the virus through a filter to reduce cytotoxicity on the assay cells. […] Infectious virus was quantified through a serial dilution (a series of ten-fold dilutions) on monolayers of Hep2 cells in microtitre plates (Hep2 cells are mammalian cells capable of displaying a cytopathic effect (CPE) upon viral infection). The starting solution for the serial dilution (i.e. the neat (or undiluted) solution) was obtained by re-suspending the virus that was separated via the filtration step in 1 ml of media. For each dilution of the virus in the dilution series, eight wells of the microtitre plate were tested (i.e. each dilution of virus was applied to eight separate wells, each well containing a Hep2 cell monolayer). Appropriate controls were also performed. […] The TCID50 (TCID50/ml) assay (Tissue Culture Infectious Dose 50 assay) is a type of endpoint dilution assay that is well known in the art and routinely used to quantitatively measure virus titres. TCID50/ml provides a measure of infectious units of virus/ml. “/ml” refers to/ml of the starting solution (i.e. neat/undiluted solution) mentioned above. […]

[5] = test system: Influenza A strain A/WSN/33 (H1N1); format: cell-based, Influenza A virus
MDCK-II cells [6] = experiment: Parallel residual cytotoxicity test without virus on MDCK-II assay cells (Example 6); format: cell-based, canine; details: after filtration, no virus, 1% LTX-7 or 0.2% Triton X-100
Method: as §1

[7] = test system: SARS-CoV-2 isolate England/02/2020; format: cell-based; details: SARS-CoV-2, contact time 1 h at RT; 1% LTX-12 (w/v) in PBS or 0.2% Triton in PBS; Vero cells
Vero cells = experiment: Parallel residual cytotoxicity test without virus on Vero assay cells (Example 5); format: cell-based, African green monkey; details: after filtration, no virus, 1% LTX-12 or 0.2% Triton
Method: as §1

CC(C)(C)c1cc(C(C)(C)C)c2[nH]c(C(C)(C)C)c(CC(NC(=O)C(N)CCCNC(=N)N)C(=O)NC(CCCNC(=N)N)C(=O)NCCc3ccccc3)c2c1 (centres unmarked) [LTX-109]
Effect on envelope of Lenti-virus-like particles (electron microscopy) [1]: disrupted (or dissolved) envelope | TCID50/ml ± SEM (average virus titre recovered) ([2]; 1% LTX-109 (w/v) in PBS, 1 h incubation, MDCK-II cells): 1.58E+01 TCID50/ml and 1.58E+01 ± 0.00E+00 TCID50/ml | Log (virus titre) ([2]; 1% LTX-109, 1 h): 1.20 Log | Percentage (decrease in infectivity vs PBS control) ([2]; 1% LTX-109, 1 h): 99.9% and 99.969% | With Filtration: cytotoxicity on assay cells (dilution up to which seen) (MDCK-II cells [3]): only up to the first dilution | TCID50/ml ± SEM (average virus titre recovered) ([4]; 0.1% LTX-109 (w/v) in PBS): 8.76E+01 TCID50/ml and 8.76E+01 ± 4.11E+01 TCID50/ml | Log (virus titre) ([4]; 0.1% LTX-109, 1 h): 1.78 Log | Percentage (decrease in infectivity vs PBS control) ([4]; 0.1% LTX-109, 1 h): 99.9% and 99.97% | TCID50/ml ± SEM (average virus titre recovered) ([4]; 1% LTX-109 (w/v) in PBS): 1.58E+02 TCID50/ml and 1.58E+02 ± 0.00E+00 TCID50/ml | Log (virus titre) ([4]; 1% LTX-109, 1 h): 2.20 Log | Percentage (decrease in infectivity vs PBS control) ([4]; 1% LTX-109, 1 h): 99.9% and 99.949% | TCID50/ml ± SEM (average virus titre recovered) (SARS-CoV-2; SARS-CoV-2, 1% LTX-109 (w/v) in PBS, 1 h incubation, Vero cells): 1.99E+02 TCID50/ml and 1.99E+02 ± 4.11E+01 TCID50/ml | Log (virus titre) (SARS-CoV-2; SARS-CoV-2, 1% LTX-109, 1 h): 2.28 Log | Percentage (decrease in infectivity vs PBS control) (SARS-CoV-2; SARS-CoV-2, 1% LTX-109, 1 h): 99.99% and 99.995% | With Filtration: cytotoxicity on assay cells (Hep2 cells): No cytotoxicity

N=C(N)NCCCC(N)C(=O)NC(Cc1ccc(-c2ccc3ccccc3c2)cc1)C(=O)NC(CCCNC(=N)N)C(=O)NCCc1ccccc1 (centres unmarked) [LTX-7, Arg-Phe(4-(2-Naphthyl))-Arg-NH—CH2—CH2-Ph]
Rounded % (reduction) ([5]; contact time 1 h, 1% LTX-7 or 0.2% Triton X-100): 99.99% | TCID50/ml ± SEM (average virus titre recovered) ([5]; contact time 1 h at RT, 1% LTX-7 (w/v) in PBS or 0.2% Triton X-100 in PBS, MDCK-II cells): 1.58E+01 TCID50/ml and 1.58E+01 ± 0.00E+00 TCID50/ml | Cytotoxicity on assay cells (dilution at which seen) (MDCK-II cells [6]): neat

CC(C)(C)c1cc(C(C)(C)C)c2[nH]c(C(C)(C)C)c(CC(NC(=O)C(N)CCCCN)C(=O)NC(CCCCN)C(=O)NCCc3ccccc3)c2c1 (stereo not drawn) [LTX-12, Lys-Tbt-Lys-NH—CH2—CH2-Ph]
TCID50/ml ± SEM (average virus titre recovered) [7]: 1.58E+02 TCID50/ml and 1.58E+02 ± 0.00E+00 TCID50/ml | Cytotoxicity on assay cells (Vero cells): no significant cytotoxicity
